Laboratory results taken from patent US9650339B2, “Inhibitors of histone demethylases” (Gilead Sciences, Inc., priority 2013, dated 2017).

Legend:
KDM7 (PHF8) = biological target: T1, KDM7 (PHF8) (Homo sapiens, UniProt Q9UPP1); test: Histone lysine demethylase AlphaLISA assay, KDM7; format: biochemical; conditions: read-out: PHF8 HDME Inhibition IC50
T1 construct: KDM7 (PHF8); BRIC; 1-1322; Bac
Method: (§1) Assays are performed analogously to the protocol described by PerkinElmer (Roy et al. PerkinElmer Technical Note: AlphaLISA #12, April 2011)
Enzymes are dissolved in enzyme buffer and incubated for 10 min before being added to 3% DMSO solutions of compounds in enzyme buffer. Incubated for another 10 minutes, before substrate solution is added and the reaction mixture is incubated at room temperature. 10 μL acceptor beads, suspended in Epigenetic Buffer (Perkin Elmer AL008) from stock, are added and the suspension is incubated in the dark at room temperature, before a suspension of streptavidin donor beads (Perkin Elmer 6760002) in Epigenetic Buffer is added. After incubation at room temperature in the dark the plates are read. […]
BK9M2: Biotin-ARTKQTAR(KMe2)STGGKAPRKQ-NH2 (AnaSpec 64359)
BK9M1: Biotin-ARTKQTAR(KMe1)STGGKAPRKQ-NH2 (AnaSpec 64358) […]
(§2) Substrate Solution: Substrate, 25 μM L-Asc, and 10 μM α-KG in Buffer A.

KDM5B = biological target: T2, KDM5B (Homo sapiens, UniProt Q9UGL1); test: Histone lysine demethylase immunofluorescence assay, U2OS cells transfected with KDM5B; format: cell-based; conditions: U2OS cells transfected with pCMVHA KDM5B; mark detected H3K4me2; 20 hours
T2 construct: (a.a. 1-752); host or cells: U2OS
T2 sequence (Q9UGL1 1-752): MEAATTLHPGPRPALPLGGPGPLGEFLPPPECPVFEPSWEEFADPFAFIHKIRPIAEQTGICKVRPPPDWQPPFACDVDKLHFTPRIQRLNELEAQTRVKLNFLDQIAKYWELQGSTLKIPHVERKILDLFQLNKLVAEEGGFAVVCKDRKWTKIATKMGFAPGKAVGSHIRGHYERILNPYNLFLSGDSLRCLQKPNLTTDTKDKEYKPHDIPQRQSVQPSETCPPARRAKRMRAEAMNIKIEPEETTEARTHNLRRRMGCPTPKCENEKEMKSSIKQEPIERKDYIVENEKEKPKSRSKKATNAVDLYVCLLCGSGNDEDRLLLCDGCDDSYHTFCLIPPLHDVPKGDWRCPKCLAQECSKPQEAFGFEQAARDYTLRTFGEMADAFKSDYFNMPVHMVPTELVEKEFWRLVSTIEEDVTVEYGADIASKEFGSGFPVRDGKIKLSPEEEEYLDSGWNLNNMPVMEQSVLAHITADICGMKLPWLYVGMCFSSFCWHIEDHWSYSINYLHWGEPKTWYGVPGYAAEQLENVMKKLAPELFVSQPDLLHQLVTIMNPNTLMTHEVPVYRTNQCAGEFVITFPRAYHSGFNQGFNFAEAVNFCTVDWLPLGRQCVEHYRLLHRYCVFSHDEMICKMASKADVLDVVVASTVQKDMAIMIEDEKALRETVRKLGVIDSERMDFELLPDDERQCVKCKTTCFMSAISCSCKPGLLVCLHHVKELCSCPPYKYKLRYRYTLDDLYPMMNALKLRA
Method: U2OS cells were seeded 24 hours before transfection. Transfection was performed with Fugene HD transfection reagent as recommended by the manufacturer. 6 hours after transfection, the cells were harvested and seeded into multi well plates into media containing compound. The media used was DMEM containing 10% FBS and pen/strep. 20 hours after incubation of cells with compounds, the cells were washed in PBS, harvested by fixation with formaldehyde 4% aqueous solution, and washed in PBS. Subsequently, the cells were permeabilized in PBS with 0.2% Triton X-100 for. Blocking was performed in PBS with 0.2% Triton X-100 and 5% FBS. The cells were incubated with primary antibodies in blocking solution over night at 4° C. The primary antibodies used in the assays were HA.11 (Covance, MMS-101P) and the antibody detecting the mark specified in the table below. After incubation with primary antibodies, the cells were washed with PBS, incubated with secondary antibodies (Alexa fluor 594 goat anti rabbit IgG, Invitrogen, A11012; Alexa flour 488 donkey anti mouse IgG, Invitrogen, A21202) and Hoechst, (Sigma, 33342) in blocking solution, and washed again with PBS. Finally, PBS was added and high throughput imaging and analysis were performed by an IN Cell Analyzer 1000 (GE Healthcare). The robot software analyzed individual cells and divided these into HA+ (transfected cells) and HA− (non-transfected cells). The IC50 values were based on an average measure of the staining of the mark specified in the table below in the transfected cells.

KDM4B (JMJD2B) = biological target: T3, KDM4B (JMJD2B) (Homo sapiens, UniProt O94953); test: Histone lysine demethylase AlphaLISA assay, KDM4B; format: biochemical; conditions: read-out: KDM4B HDME Inhibition IC50
T3 construct: 2-500; purchased BPS; host or cells: Bac (baculovirus system)
T3 sequence (O94953 2-500): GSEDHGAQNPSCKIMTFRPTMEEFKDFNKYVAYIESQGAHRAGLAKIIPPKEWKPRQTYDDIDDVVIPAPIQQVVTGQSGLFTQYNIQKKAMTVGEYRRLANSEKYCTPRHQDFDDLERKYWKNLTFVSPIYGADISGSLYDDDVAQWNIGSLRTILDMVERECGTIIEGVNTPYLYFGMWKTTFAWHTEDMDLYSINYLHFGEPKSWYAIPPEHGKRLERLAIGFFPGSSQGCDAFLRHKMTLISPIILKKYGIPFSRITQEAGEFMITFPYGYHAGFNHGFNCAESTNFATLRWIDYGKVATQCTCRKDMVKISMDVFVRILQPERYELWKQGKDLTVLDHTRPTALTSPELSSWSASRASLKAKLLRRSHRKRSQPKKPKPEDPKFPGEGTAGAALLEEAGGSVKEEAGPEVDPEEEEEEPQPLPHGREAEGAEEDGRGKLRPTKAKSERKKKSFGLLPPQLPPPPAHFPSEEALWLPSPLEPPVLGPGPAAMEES
Method: as §1
Enzymes are dissolved in enzyme buffer and incubated for 10 min before being added to 3% DMSO solutions of compounds in enzyme buffer. Incubated for another 10 minutes, before substrate solution is added and the reaction mixture is incubated at room temperature. 10 μL acceptor beads, suspended in Epigenetic Buffer (Perkin Elmer AL008) from stock, are added and the suspension is incubated in the dark at room temperature, before a suspension of streptavidin donor beads (Perkin Elmer 6760002) in Epigenetic Buffer is added. After incubation at room temperature in the dark the plates are read.
BK9M3: Biotin-ARTKQTAR(KMe3)STGGKAPRKQ-NH2 (Caslo, Denmark) […]
as §2

T1 sequence (Q9UPP1 37-440 limits assumed): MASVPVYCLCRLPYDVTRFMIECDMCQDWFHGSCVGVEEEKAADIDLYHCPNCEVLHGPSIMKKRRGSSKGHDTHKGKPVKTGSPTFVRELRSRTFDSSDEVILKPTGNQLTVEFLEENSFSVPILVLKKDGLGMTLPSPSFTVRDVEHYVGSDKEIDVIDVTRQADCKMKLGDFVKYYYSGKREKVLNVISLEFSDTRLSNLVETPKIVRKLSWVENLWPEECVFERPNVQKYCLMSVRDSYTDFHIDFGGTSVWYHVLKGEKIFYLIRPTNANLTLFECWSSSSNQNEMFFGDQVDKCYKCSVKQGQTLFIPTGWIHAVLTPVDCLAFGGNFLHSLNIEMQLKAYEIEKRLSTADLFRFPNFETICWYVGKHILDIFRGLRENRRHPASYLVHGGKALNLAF

| IC50 (KDM7 (PHF8)) [nM] | IC50 (KDM5B) [nM] | IC50 (KDM4B (JMJD2B)) [nM] | Structure (SMILES) |
| --- | --- | --- | --- |
| 250 to 2500 | < 250 | < 250 | CN(C)CCCNCc1cc(CN)ccn1 [Compound 3, [2-({[3-(dimethylamino)propyl]-amino}methyl)pyridin-4-yl]methanamine] |
| 250 to 2500 | < 250 | < 250 | CCN(CCN(C)C)C(=O)CNCc1cc(CN)ccn1 [Compound 4, 2-({[4-(aminomethyl)pyridin-2-yl]methyl}amino)-N-[2-(dimethylamino)ethyl]-N-ethylacetamide] |
| > 2500 | < 250 | > 2500 | CCN(CC)CCCCNCc1cc(CN)ccn1 [Compound 5, [2-({[4-(diethylamino)butyl]-amino}methyl)pyridin-4-yl]methanamine] |
| 250 to 2500 | < 250 | < 250 | CCN(CC)CCCCN(Cc1cc(CNC(=O)C(F)(F)F)ccn1)C(=O)C(F)(F)F [Compound 6, N-[4-(diethylamino)butyl]-- 2,2,2-trifluoro-N-({4-[(trifluoroacetamido)-methyl]pyridin-2-yl}methyl)acetamide] |
| > 2500 | < 250 | < 250 | NCc1ccnc(CNCCCCN2CCC2)c1 [Compound 7, [2-({[4-(azetidin-1-yl)butyl]amino}methyl)-pyridin-4-yl]-methanamine] |
| > 2500 | < 250 | > 2500 | CN(C)CCCCCNCc1cc(CN)ccn1 [Compound 8, [2-({[5-(dimethylamino)pentyl]-amino}methyl)pyridin-4-yl]methanamine] |
| > 2500 | 250 to 2500 | > 2500 | COc1ccccc1CN1CCC(NC(=O)CNCc2cc(CN)ccn2)CC1 [Compound 9, 2-({[4-(aminomethyl)pyridin-2-yl]methyl}amino)-N-{1-[(2-methoxyphenyl)methyl]-piperidin-4-yl}acetamide] |
| > 2500 | > 2500 | > 2500 | CN(C)CCCCNCc1cc(CNC2CC2)ccn1 [Compound 10, N-{[2-({[4-(dimethylamino)butyl]-amino}methyl)pyridin-4-yl]methyl}-cyclopropanamine] |
| > 2500 | > 2500 | > 2500 | CC1CCCCN1CCCNCc1cc(CNC2CC2)ccn1 (stereo not drawn) [Compound 11, N-{[2-({[3-(2-methylpiperidin-1-yl)propyl]amino}methyl)-pyridin-4-yl]methyl}-cyclopropanamine] |
| > 2500 | > 2500 | < 250 | CCCNCc1cc(CNC2CC2)ccn1 [Compound 12, N-({2-[(propylamino)methyl]-pyridin-4-yl}methyl)-cyclopropanamine] |
| > 2500 | 250 to 2500 | > 2500 | CN(C)C(=O)CNCc1cc(CNCC#N)ccn1 [Compound 13, 2-{[(4-{[(cyanomethyl)amino]-methyl}pyridin-2-yl)methyl]amino}-N,N-dimethylacetamide] |
| > 2500 | > 2500 | 250 to 2500 | CN(C)C(=O)CNCc1cc(CNCCF)ccn1 [Compound 14, 2-{[(4-{[(2-fluoroethyl)amino]-methyl}pyridin-2-yl)methyl]amino}-N,N-dimethylacetamide] |
| > 2500 | 250 to 2500 | 250 to 2500 | CN(C)CCNCc1ccnc(CNCC(=O)N(C)C)c1 [Compound 15, 2-({[4-({[2-(dimethylamino)ethyl]-amino}methyl)pyridin-2-yl]methyl}amino)-N,N-dimethylacetamide] |
| 250 to 2500 | > 2500 | > 2500 | c1ccc(CN2CCC[C@H]2CNCc2cc(CNCC3CC3)ccn2)cc1 [Compound 16, {[(2S)-1-benzylpyrrolidin-2-yl]methyl}[(4-{[(cyclopropylmethyl)-amino]methyl}pyridin-2-yl)methyl]amine] |
| > 2500 | > 2500 | 250 to 2500 | CNCc1ccnc(CNCCCN(C)Cc2ccccc2)c1 [Compound 17, benzyl(methyl){3-[({4-[(methylamino)methyl]-pyridin-2-yl)methyl)-amino]propyl}-amine] |
| > 2500 | 250 to 2500 | > 2500 | CN(C)CCNCc1cc(CNC(C#N)C2CC2)ccn1 (stereo not drawn) [Compound 21, 2-cyclopropyl-2-({[2-({[2-(dimethylamino)ethyl]-amino}methyl)pyridin-4-yl]methyl}amino)-acetonitrile] |
| > 2500 | < 250 | 250 to 2500 | CC(C#N)NCc1ccnc(CNCCCN(C)C)c1 (stereo not drawn) [Compound 22, 2-({[2-({[3-(dimethylamino)propyl]-amino}methyl)pyridin-4-yl]methyl}amino)-propanenitrile] |
| > 2500 | 250 to 2500 | > 2500 | N#CCNCc1ccnc(CNCCCCN(Cc2ccccc2)C2CC2)c1 [Compound 23, 2-[({2-[({4-[benzyl(cyclopropyl)-amino]butyl}amino)-methyl]pyridin-4-yl}methyl)amino]-acetonitrile] |
| > 2500 | < 250 | < 250 | CNC(C#N)c1ccnc(CNCCCN(C)C)c1 (stereo not drawn) [Compound 24, 2-[2-({[3-(dimethylamino)propyl]-amino}methyl)pyridin-4-yl]-2-(methylamino)-acetonitrile] |
| > 2500 | < 250 | > 2500 | CCN(CCN(C)C)C(=O)CNCc1cc(CNC(=O)C(F)(F)F)ccn1 [Compound 25, N-[(2-{[({[2-(dimethylamino)ethyl]-(ethyl)carbamoyl}-methyl)amino]methyl}-pyrtdin-4-yl)methyl]-2,2,2-trifluoroacetamide] |
| > 2500 | 250 to 2500 | > 2500 | CN(C)C(=O)CNCc1cc(/C=N\C2CC2)ccn1 [Compound 33] |
